Laboratory results taken from patent US12029217B2, “Safened compositions comprising pyridine carboxylate herbicides and isoxadifen” (Corteva Agriscience LLC, priority 2018, dated 2024).

Experiments:
Assay type in all cases: in vivo
[1] = test system: Kochia scoparia (herbicide-resistant kochia); experiment: Greenhouse postemergence visual injury, herbicide-resistant kochia (KCHSC-R); details: Example 6
Text: (§1) Seeds of the desired test plant species were planted in a 90:10% v/v (volume/volume) mixture of PRO-MIX® BX (Premier Tech Horticulture, Quakertown, PA, USA) and PROFILE® GREENS GRADE™ (Profile Products LLC, Buffalo Grove, IL, USA) planting mixture, which typically has a pH of 5.2 to 6.2 and an organic matter content of at least 50 percent, in plastic pots with a surface area of 103.2 square centimeters (cm^2). When required to ensure good germination and healthy plants, a fungicide treatment and/or other chemical or physical treatment was applied. The plants were grown for 7-36 days (d) in a greenhouse with an approximate 14-hour (h) photo-period which was maintained at about 23° C. during the day and 22° C. during the night. Nutrients and water were added on a regular basis and supplemental lighting was provided with overhead metal halide 1000-Watt lamps as necessary. The plants were employed for testing when they reached the second or third true leaf stage.
(§2) Emulsifiable concentrates of each of each pyridine carboxylate herbicide (Compound A or Compound B) were prepared at 100 grams acid equivalent per liter (g ae/L). An aliquot of each emulsifiable concentrate was placed in a 25 mL glass vial and diluted with an aqueous mixture of 1.25% (v/v) ACTIROB® B esterified rapeseed oil (Bayer Crop Science, Research Triangle Park, NC, USA) or MSO® Concentrate with LECI-TECH® methylated soybean oil (Loveland Products, Loveland, CO, USA) to obtain concentrated stock solutions at the highest application rate for each herbicide, based upon a 12 milliliter (mL) application volume at a rate of 187 liters per hectare (L/ha). The concentrated stock solutions were further diluted with an aqueous mixture of 1.25% v/v ACTIROB® B or MSO® Concentrate with LECI-TECH® to obtain stock solutions at reduced application rates for each herbicide. Spray solutions of the herbicide combinations (Compound A or Compound B plus safener) were prepared by adding weighed amounts or aliquots of the safener to the stock solutions of Compound A or Compound B to form 12-mL spray solutions in two-way combinations.
(§3) The spray solutions were applied to the plant material with an overhead Mandel track sprayer equipped with 8002E nozzles calibrated to deliver 187 L/ha over an application area of 0.503 square meters (m^2) at a spray height of 18 inches (43 centimeters (cm)) above the average plant canopy. […]
(§4) The treated plants and control plants were placed in a greenhouse as described above and watered by sub-irrigation to prevent wash-off of the test compounds. After 20-22 d, the condition of the test plants as compared with that of the control plants was determined visually and scored on a scale of 0 to 100 percent where 0 corresponds to no injury and 100 corresponds to complete kill.

[2] = test system: Helianthus annuus (common sunflower); experiment: Greenhouse postemergence visual injury, common sunflower (HELAN)
Text: as §1, §2
(§5) The spray solutions were applied to the plant material with an overhead Mandel track sprayer equipped with 8002E nozzles calibrated to deliver 187 L/ha over an application area of 0.503 square meters (m^2) at a spray height of 18 inches (43 centimeters (cm)) above the average plant canopy. Control plants were sprayed in the same manner with the solvent blank. All herbicide (component a) application rates are given as “g ae/ha” and all safener (component b) application rates are given as “g ai/ha.”
as §4

[3] = test system: Salsola kali (Russian thistle); experiment: Greenhouse postemergence visual injury, Russian thistle (SASKR); details: Example 1
Text: as §1, §2, §3, §4

[4] = test system: Viola tricolor (wild pansy); experiment: Greenhouse postemergence visual injury, wild pansy (VIOTR); details: Example 6
Text: as §1, §2, §3, §4

[5] = test system: Amaranthus retroflexus (pigweed); experiment: Greenhouse postemergence visual injury, pigweed (AMARE)
Text: as §1, §2, §5, §4

[6] = test system: Glycine max (soybean); experiment: Greenhouse postemergence visual injury, soybean (GLXMA)
Text: as §1, §2, §5, §4

[7] = test system: Erigeron canadensis (Canada horseweed); experiment: Greenhouse postemergence visual injury, Canada horseweed (ERICA)
Text: as §1, §2, §5, §4

[8] = test system: Echinochloa crus-galli (barnyardgrass); experiment: Greenhouse postemergence visual injury, barnyardgrass (ECHCG)
Text: as §1, §2, §5, §4

[9] = test system: Ipomoea hederacea (ivyleaf morningglory); experiment: Greenhouse postemergence visual injury, ivyleaf morningglory (IPOHE); details: Example 6
Text: as §1, §2, §3, §4

[10] = test system: Amaranthus palmeri (glyphosate-resistant Palmer amaranth); experiment: Greenhouse postemergence visual injury, glyphosate-resistant Palmer amaranth (AMAPA-Gly); details: Example 7
Text: as §1, §2, §3, §4

[11] = test system: Zea mays (maize); experiment: Greenhouse postemergence visual injury, maize (ZEAMX)
Text: as §1, §2, §5, §4

[12] = test system: Hordeum vulgare (spring barley); experiment: Greenhouse postemergence visual injury, spring barley (HORVS)
Text: as §1, §2, §5, §4

[13] = test system: Avena fatua (wild oat); experiment: Greenhouse postemergence visual injury, wild oat (AVEFA); details: Example 6
Text: as §1, §2, §3, §4

[14] = test system: Brassica napus (winter rape); experiment: Greenhouse postemergence visual injury, winter rape (BRSNW)
Text: as §1, §2, §5, §4

[15] = test system: Alopecurus myosuroides (blackgrass); experiment: Greenhouse postemergence visual injury, blackgrass (ALOMY); details: Example 6
Text: as §1, §2, §3, §4

[16] = test system: Sorghum halepense (Johnson grass); experiment: Greenhouse postemergence visual injury, Johnson grass (SORHA)
Text: as §1, §2, §5, §4

[17] = isoxadifen-ethyl 20 g/ha, Example 4
[18] = isoxadifen-ethyl 20 g/ha, Example 5
[19] = isoxadifen-ethyl 20 g/ha, Example 6
[20] = isoxadifen-ethyl 40 g/ha, Example 4
[21] = isoxadifen-ethyl 40 g/ha, Example 5
[22] = isoxadifen-ethyl 40 g/ha, Example 6
[23] = isoxadifen-ethyl 80 g/ha, Example 4
[24] = isoxadifen-ethyl 80 g/ha, Example 5
[25] = isoxadifen-ethyl 80 g/ha, Example 6
[26] = isoxadifen-ethyl 120 g/ha, Example 4
[27] = isoxadifen-ethyl 120 g/ha, Example 5
[28] = isoxadifen-ethyl 10 g/ha, Example 7
[29] = isoxadifen-ethyl 20 g/ha, Example 7
[30] = isoxadifen-ethyl 10 g/ha, Example 1
[31] = isoxadifen-ethyl 20 g/ha, Example 1
[32] = isoxadifen-ethyl 40 g/ha, Example 1

Measured: % visual injury, Ob

N#CCOC(=O)c1nc(-c2ccc3cc[nH]c3c2F)c(F)c(N)c1Cl [Compound A, cyanomethyl 4-amino-3-chloro-5-fluoro-6-(7-fluoro-1H-indol-6-yl)pyridine-2-carboxylate]
48%: [11]; Compound A 10 g/ha, Example 7
30%: [4]; Compound A 20 g/ha
17%: [12]; Compound A 40 g/ha, Example 2
60%: [3]; Compound A 20 g/ha | [11]; Compound A 20 g/ha, Example 7 | [16]; Compound A 20 g/ha, Example 7
55%: [11]; Compound A 40 g/ha, Example 5
95%: [2]; Compound A 20 g/ha, Example 6 | [7]; Compound A 20 g/ha, Example 6 | [7]; Compound A 20 g/ha, Example 7 | [14]; Compound A 20 g/ha, Example 1
10%: [16]; Compound A 10 g/ha, Example 7
13%: [11]; Compound A 20 g/ha, Example 6
0%: [9]; Compound A 20 g/ha | [12]; Compound A 20 g/ha, Example 1 | [13]; Compound A 20 g/ha | [15]; Compound A 20 g/ha | [16]; Compound A 20 g/ha, Example 6
93%: [5]; Compound A 20 g/ha, Example 6
85%: [8]; Compound A 20 g/ha, Example 6 | [14]; Compound A 20 g/ha, Example 6
90%: [1]; Compound A 20 g/ha | [7]; Compound A 10 g/ha, Example 7
100%: [2]; Compound A 40 g/ha, Example 4 | [2]; Compound A 40 g/ha, Example 5 | [5]; Compound A 40 g/ha, Example 4 | [5]; Compound A 40 g/ha, Example 5 | [6]; Compound A 10 g/ha, Example 7 | [6]; Compound A 20 g/ha, Example 6 | [6]; Compound A 20 g/ha, Example 7 | [8]; Compound A 10 g/ha, Example 7 | [8]; Compound A 20 g/ha, Example 7 | [10]; Compound A 10 g/ha | [10]; Compound A 20 g/ha

CCOC(=O)C1=NOC(c2ccccc2)(c2ccccc2)C1 [Isoxadifen-ethyl, isoxadifen-ethyl]
0%: [1]; isoxadifen-ethyl 20 g/ha | [1]; isoxadifen-ethyl 40 g/ha | [1]; isoxadifen-ethyl 80 g/ha | [2]; [17] | [2]; [18] | [2]; [19] | [2]; [20] | [2]; [21] | [2]; [22] | [2]; [23] | [2]; [24] | [2]; [25] | [2]; [26] | [2]; [27] | [3]; isoxadifen-ethyl 10 g/ha | [3]; isoxadifen-ethyl 20 g/ha | [3]; isoxadifen-ethyl 40 g/ha | [4]; isoxadifen-ethyl 20 g/ha | [4]; isoxadifen-ethyl 40 g/ha | [4]; isoxadifen-ethyl 80 g/ha | [5]; [17] | [5]; [18] | [5]; [19] | [5]; [20] | [5]; [21] | [5]; [22] | [5]; [23] | [5]; [24] | [5]; [25] | [5]; [26] | [5]; [27] | [6]; [28] | [6]; [19] | [6]; [29] | [6]; [22] | [6]; [25] | [7]; [28] | [7]; [19] | [7]; [29] | [7]; [22] | [7]; [25] | [8]; [28] | [8]; [19] | [8]; [29] | [8]; [22] | [8]; [25] | [9]; isoxadifen-ethyl 20 g/ha | [9]; isoxadifen-ethyl 40 g/ha | [9]; isoxadifen-ethyl 80 g/ha | [10]; isoxadifen-ethyl 10 g/ha | [10]; isoxadifen-ethyl 20 g/ha | [11]; [28] | [11]; [18] | [11]; [19] | [11]; [29] | [11]; [21] | [11]; [22] | [11]; [24] | [11]; [25] | [11]; [27] | [12]; [30] | [12]; [31] | [12]; isoxadifen-ethyl 20 g/ha, Example 2 | [12]; [32] | [12]; isoxadifen-ethyl 40 g/ha, Example 2 | [12]; isoxadifen-ethyl 80 g/ha, Example 2 | [12]; isoxadifen-ethyl 120 g/ha, Example 2 | [13]; isoxadifen-ethyl 20 g/ha | [13]; isoxadifen-ethyl 40 g/ha | [13]; isoxadifen-ethyl 80 g/ha | [14]; [30] | [14]; [31] | [14]; [19] | [14]; [32] | [14]; [22] | [14]; [25] | [15]; isoxadifen-ethyl 20 g/ha | [15]; isoxadifen-ethyl 40 g/ha | [15]; isoxadifen-ethyl 80 g/ha | [16]; [28] | [16]; [19] | [16]; [29] | [16]; [22] | [16]; [25]
